From patent US8063041B2 (Wyeth LLC, priority 2009, dated 2011)
Values belong to the molecule of their own block, whether it stands above or below them.

Columns and labels:
[1] = Solubility of bazedoxifene acetate forms (dynamic dissolution method using Crystal-16 and HPLC method); format: physicochemical; conditions: for solubility compared with Form B: crystallization solvent
Description: The profiles of the temperature and magnetic stirring speed for each row may be independently adjusted. The turbidity of each vial was monitored and plotted with the temperature profiles to determine dissolution and precipitation points of solids. A pre-weighed amount of solid and solvent were mixed together in clear glass vials, and were heated slowly (at 0.2° C./min). The dissolution temperature was recorded. The concentration of the solution (calculated based on the weight of solid and solvent) was treated as the saturation concentration at the recorded temperature, and solubility was calculated based on this concentration. […] The suspension was filtered after stirring for 30 minutes and the solution concentration was analyzed by HPLC. The measured solubility data for the two methods are plotted in FIGS. 4 and 5.

uterine response = conditions: preclinical models of uterine stimulation; cited from earlier work
ovariectomized rat = ovariectomized rat model of osteopenia; cited from earlier work
[2] = tested on: MCF-7 cell line (human breast cancer cell line); conditions: cited from earlier work

solubility compared with Form A ([1]; at 0-60° C.): less soluble | solubility compared with Form B ([1]; above about 30° C.): slightly higher than that of Form B | solubility compared with Form B ([1]; below about 30° C.): very similar to Form B solubility
Structure (SMILES): Cc1c(-c2ccc(O)cc2)n(Cc2ccc(OCCN3CCCCCC3)cc2)c2ccc(O)cc12 [Form D, 1-[4-(2-azepan-1-yl-ethoxy)-benzyl]-2-(4-hydroxy-phenyl)-3-methyl-1H-indol-5-ol acetic acid]

solubility compared with other forms ([1]; all conditions studied, crystallization solvent and slurry test solvent): higher than Forms B and D
Structure (SMILES): CC(=O)O.Cc1c(-c2ccc(O)cc2)n(Cc2ccc(OCCN3CCCCCC3)cc2)c2ccc(O)cc12 [Form A]

Structure (SMILES): Cc1c(-c2ccc(O)cc2)n(Cc2ccc(OCCN3CCCCCC3)cc2)c2ccc(O)cc12 [bazedoxifene acetate, 1-[4-(2-azepan-1-yl-ethoxy)-benzyl]-2-(4-hydroxy-phenyl)-3-methyl-1H-indol-5-ol acetic acid]
stimulation of uterine response (uterine response): little or no stimulation | preventing bone loss (ovariectomized rat): estrogen agonist-like effect | reducing cholesterol (ovariectomized rat): estrogen agonist-like effect | estrogen agonist/antagonist behaviour [2]: behaves as an estrogen antagonist
